Source: ChEMBL document CHEMBL4507301 (2021)

Assays:
[1] = target: 5'-AMP-activated protein kinase catalytic subunit alpha-1 (Homo sapiens) (UniProt Q13131); conditions: Compound concentration 1000.0 nM
[2] = target: Tyrosine-protein kinase Blk (Homo sapiens) (UniProt P51451); conditions: Compound concentration 1000.0 nM
[3] = target: Bone morphogenetic protein receptor type-1A (Homo sapiens) (UniProt P36894); conditions: Compound concentration 1000.0 nM
[4] = target: Protein-tyrosine kinase 6 (Homo sapiens) (UniProt Q13882); conditions: Compound concentration 1000.0 nM
[5] = target: Calcium/calmodulin-dependent protein kinase type 1B (Homo sapiens) (UniProt Q6P2M8); conditions: Compound concentration 1000.0 nM
[6] = target: Cyclin-dependent kinase 9 (Homo sapiens) (UniProt P50750); conditions: Compound concentration 1000.0 nM
[7] = target: Serine/threonine-protein kinase Chk2 (Homo sapiens) (UniProt O96017); conditions: Compound concentration 1000.0 nM
[8] = target: Macrophage colony-stimulating factor 1 receptor (Homo sapiens) (UniProt P07333); conditions: Compound concentration 1000.0 nM
[9] = target: Mitogen-activated protein kinase kinase kinase 12 (Homo sapiens) (UniProt Q12852); conditions: Compound concentration 1000.0 nM
[10] = tested on: Epidermal growth factor receptor (Homo sapiens), P00533 [L858R,T790M]; conditions: Compound concentration 1000.0 nM
[11] = target: Ephrin type-A receptor 3 (Homo sapiens) (UniProt P29320); conditions: Compound concentration 1000.0 nM
[12] = target: Mitogen-activated protein kinase 4 (Homo sapiens) (UniProt P31152); conditions: Compound concentration 1000.0 nM
[13] = target: Inhibitor of nuclear factor kappa-B kinase subunit alpha (Homo sapiens) (UniProt O15111); conditions: Compound concentration 1000.0 nM
[14] = target: Inhibitor of nuclear factor kappa-B kinase subunit epsilon (Homo sapiens) (UniProt Q14164); conditions: Compound concentration 1000.0 nM
[15] = target: Interleukin-1 receptor-associated kinase 3 (Homo sapiens) (UniProt Q9Y616); conditions: Compound concentration 1000.0 nM
[16] = target: Interleukin-1 receptor-associated kinase 4 (Homo sapiens) (UniProt Q9NWZ3); conditions: Compound concentration 1000.0 nM
[17] = target: Mitogen-activated protein kinase kinase kinase 2 (Homo sapiens) (UniProt Q9Y2U5); conditions: Compound concentration 1000.0 nM
[18] = target: Serine/threonine-protein kinase MARK2 (Homo sapiens) (UniProt Q7KZI7); conditions: Compound concentration 1000.0 nM
[19] = target: Dual specificity mitogen-activated protein kinase kinase 6 (Homo sapiens) (UniProt P52564); conditions: Compound concentration 1000.0 nM
[20] = tested on: Hepatocyte growth factor receptor (Homo sapiens), P08581 [M1250T]; conditions: Compound concentration 1000.0 nM
[21] = target: Mitogen-activated protein kinase kinase kinase 11 (Homo sapiens) (UniProt Q16584); conditions: Compound concentration 1000.0 nM
[22] = target: Serine/threonine-protein kinase 26 (Homo sapiens) (UniProt Q9P289); conditions: Compound concentration 1000.0 nM
[23] = target: Serine/threonine-protein kinase Nek9 (Homo sapiens) (UniProt Q8TD19); conditions: Compound concentration 1000.0 nM
[24] = target: Serine/threonine-protein kinase PAK 3 (Homo sapiens) (UniProt O75914); conditions: Compound concentration 1000.0 nM
[25] = target: Cyclin-dependent kinase 14 (Homo sapiens) (UniProt O94921); conditions: Compound concentration 1000.0 nM
[26] = tested on: Phosphatidylinositol 4,5-bisphosphate 3-kinase catalytic subunit alpha isoform (Homo sapiens), P42336 [H1047Y]; conditions: Compound concentration 1000.0 nM
[27] = target: Serine/threonine-protein kinase N1 (Homo sapiens) (UniProt Q16512); conditions: Compound concentration 1000.0 nM
[28] = target: Serine/threonine-protein kinase PRP4 homolog (Homo sapiens) (UniProt Q13523); conditions: Compound concentration 1000.0 nM
[29] = target: Dual serine/threonine and tyrosine protein kinase (Homo sapiens) (UniProt Q6XUX3); conditions: Compound concentration 1000.0 nM
[30] = target: SRSF protein kinase 2 (Homo sapiens) (UniProt P78362); conditions: Compound concentration 1000.0 nM
[31] = target: Mitogen-activated protein kinase kinase kinase 7 (Homo sapiens) (UniProt O43318); conditions: Compound concentration 1000.0 nM
[32] = target: Serine/threonine-protein kinase TBK1 (Homo sapiens) (UniProt Q9UHD2); conditions: Compound concentration 1000.0 nM
[33] = target: Dual specificity testis-specific protein kinase 1 (Homo sapiens) (UniProt Q15569); conditions: Compound concentration 1000.0 nM
[34] = target: NT-3 growth factor receptor (Homo sapiens) (UniProt Q16288); conditions: Compound concentration 1000.0 nM
[35] = target: Transient receptor potential cation channel subfamily M member 6 (Homo sapiens) (UniProt Q9BX84); conditions: Compound concentration 1000.0 nM
[36] = target: Testis-specific serine/threonine-protein kinase 1 (Homo sapiens) (UniProt Q9BXA7); conditions: Compound concentration 1000.0 nM
[37] = target: Wee1-like protein kinase (Homo sapiens) (UniProt P30291); conditions: Compound concentration 1000.0 nM
[38] = target: 5-hydroxytryptamine receptor 7 (Homo sapiens) (UniProt P34969); conditions: Compound concentration 10.0 uM
[39] = target: T1, Alpha-2A adrenergic receptor (Homo sapiens) (UniProt P08913); conditions: Compound concentration 10.0 uM
T1 sequence (whole entry): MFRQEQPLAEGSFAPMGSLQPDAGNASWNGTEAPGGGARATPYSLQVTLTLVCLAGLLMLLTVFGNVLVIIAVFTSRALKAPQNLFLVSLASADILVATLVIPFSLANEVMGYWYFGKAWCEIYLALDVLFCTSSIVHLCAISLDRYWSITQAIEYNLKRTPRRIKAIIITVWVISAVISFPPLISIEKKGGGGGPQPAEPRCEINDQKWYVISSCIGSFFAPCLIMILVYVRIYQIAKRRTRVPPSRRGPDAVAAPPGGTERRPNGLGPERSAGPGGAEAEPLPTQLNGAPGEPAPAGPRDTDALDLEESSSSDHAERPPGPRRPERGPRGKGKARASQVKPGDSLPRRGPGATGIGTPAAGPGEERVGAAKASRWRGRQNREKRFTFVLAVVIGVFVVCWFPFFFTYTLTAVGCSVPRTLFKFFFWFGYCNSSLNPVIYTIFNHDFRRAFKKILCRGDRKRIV

Sequence of Protein-tyrosine kinase 6 (Homo sapiens) (Q13882 whole entry, looked up): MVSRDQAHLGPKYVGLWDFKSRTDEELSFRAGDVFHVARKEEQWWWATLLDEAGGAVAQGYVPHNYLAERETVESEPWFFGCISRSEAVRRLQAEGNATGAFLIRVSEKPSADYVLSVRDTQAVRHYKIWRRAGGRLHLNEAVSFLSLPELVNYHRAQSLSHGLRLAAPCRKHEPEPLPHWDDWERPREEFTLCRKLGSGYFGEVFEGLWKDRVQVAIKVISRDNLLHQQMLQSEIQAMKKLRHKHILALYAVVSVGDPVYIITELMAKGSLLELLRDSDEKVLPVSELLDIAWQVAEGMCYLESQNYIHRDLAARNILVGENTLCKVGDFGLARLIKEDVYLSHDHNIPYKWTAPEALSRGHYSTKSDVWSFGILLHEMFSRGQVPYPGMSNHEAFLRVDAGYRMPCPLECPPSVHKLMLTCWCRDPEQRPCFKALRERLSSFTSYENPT
Sequence of Dual specificity testis-specific protein kinase 1 (Homo sapiens) (Q15569 whole entry, looked up): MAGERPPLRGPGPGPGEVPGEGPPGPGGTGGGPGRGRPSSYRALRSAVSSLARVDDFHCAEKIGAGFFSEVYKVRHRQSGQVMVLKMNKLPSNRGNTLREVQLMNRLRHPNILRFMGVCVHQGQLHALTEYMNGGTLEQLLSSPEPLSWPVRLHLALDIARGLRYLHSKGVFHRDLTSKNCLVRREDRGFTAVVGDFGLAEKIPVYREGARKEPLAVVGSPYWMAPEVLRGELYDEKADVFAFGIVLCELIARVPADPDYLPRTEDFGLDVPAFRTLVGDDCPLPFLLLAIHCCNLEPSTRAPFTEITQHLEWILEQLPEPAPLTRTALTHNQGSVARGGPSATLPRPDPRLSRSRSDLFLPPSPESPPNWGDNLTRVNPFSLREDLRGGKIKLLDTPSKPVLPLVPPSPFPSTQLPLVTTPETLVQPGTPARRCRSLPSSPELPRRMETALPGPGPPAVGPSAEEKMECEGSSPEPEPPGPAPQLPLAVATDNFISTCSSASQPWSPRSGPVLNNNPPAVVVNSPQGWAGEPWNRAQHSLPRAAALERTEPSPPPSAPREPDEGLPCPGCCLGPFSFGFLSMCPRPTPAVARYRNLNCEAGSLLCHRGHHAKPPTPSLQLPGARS
Sequence of Transient receptor potential cation channel subfamily M member 6 (Homo sapiens) (Q9BX84 whole entry): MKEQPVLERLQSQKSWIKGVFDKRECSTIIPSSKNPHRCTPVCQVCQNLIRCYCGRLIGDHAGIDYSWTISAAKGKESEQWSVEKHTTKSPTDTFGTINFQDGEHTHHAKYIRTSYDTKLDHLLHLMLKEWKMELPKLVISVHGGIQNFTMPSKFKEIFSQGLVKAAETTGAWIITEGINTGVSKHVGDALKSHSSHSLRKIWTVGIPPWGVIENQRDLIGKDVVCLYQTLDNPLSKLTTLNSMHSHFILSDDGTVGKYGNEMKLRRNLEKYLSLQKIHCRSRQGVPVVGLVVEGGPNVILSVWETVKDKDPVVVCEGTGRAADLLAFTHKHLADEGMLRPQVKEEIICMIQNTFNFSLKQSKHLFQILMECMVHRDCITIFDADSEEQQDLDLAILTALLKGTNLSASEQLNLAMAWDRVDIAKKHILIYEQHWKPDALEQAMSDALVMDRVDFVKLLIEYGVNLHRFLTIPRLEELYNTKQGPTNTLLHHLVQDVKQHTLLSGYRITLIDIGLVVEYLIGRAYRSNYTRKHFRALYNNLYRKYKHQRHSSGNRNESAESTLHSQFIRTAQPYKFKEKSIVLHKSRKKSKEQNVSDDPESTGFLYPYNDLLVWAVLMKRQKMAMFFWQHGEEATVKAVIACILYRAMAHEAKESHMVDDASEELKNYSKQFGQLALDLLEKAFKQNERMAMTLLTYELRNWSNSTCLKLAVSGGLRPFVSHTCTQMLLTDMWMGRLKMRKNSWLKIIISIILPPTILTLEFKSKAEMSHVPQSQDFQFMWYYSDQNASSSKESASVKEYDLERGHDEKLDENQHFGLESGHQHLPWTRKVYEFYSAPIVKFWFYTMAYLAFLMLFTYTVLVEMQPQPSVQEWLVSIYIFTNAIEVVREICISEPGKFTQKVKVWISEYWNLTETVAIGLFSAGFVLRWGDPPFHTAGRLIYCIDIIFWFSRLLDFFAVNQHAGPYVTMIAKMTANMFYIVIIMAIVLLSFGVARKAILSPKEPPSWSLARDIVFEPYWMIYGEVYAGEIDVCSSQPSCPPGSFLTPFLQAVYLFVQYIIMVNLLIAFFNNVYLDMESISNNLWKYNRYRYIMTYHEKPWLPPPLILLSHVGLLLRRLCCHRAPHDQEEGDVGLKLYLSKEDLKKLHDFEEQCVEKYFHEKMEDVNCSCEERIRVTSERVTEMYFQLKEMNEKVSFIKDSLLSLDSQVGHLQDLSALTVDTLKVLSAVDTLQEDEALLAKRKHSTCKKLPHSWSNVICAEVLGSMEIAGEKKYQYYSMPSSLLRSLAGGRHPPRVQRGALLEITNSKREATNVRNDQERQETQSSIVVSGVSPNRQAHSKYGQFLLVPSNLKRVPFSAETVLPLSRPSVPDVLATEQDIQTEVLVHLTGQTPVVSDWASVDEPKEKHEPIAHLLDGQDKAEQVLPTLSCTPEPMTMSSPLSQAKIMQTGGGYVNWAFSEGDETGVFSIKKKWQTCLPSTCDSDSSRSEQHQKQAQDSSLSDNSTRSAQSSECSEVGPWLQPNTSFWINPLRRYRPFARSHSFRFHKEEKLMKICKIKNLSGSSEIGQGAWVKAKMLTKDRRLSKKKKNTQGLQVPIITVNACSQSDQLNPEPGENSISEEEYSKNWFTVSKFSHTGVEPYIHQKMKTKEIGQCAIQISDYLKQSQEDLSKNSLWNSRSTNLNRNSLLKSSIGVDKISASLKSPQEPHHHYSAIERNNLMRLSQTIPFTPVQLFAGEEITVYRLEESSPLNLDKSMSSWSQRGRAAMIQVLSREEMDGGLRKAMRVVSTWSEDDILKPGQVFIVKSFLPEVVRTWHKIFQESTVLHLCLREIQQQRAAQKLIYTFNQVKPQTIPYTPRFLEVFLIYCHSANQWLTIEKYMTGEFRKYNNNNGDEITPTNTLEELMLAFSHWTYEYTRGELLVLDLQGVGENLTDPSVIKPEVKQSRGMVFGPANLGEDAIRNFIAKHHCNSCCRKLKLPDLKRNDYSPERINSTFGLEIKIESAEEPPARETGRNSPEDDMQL
Sequence of Serine/threonine-protein kinase 26 (Homo sapiens) (Q9P289 2-416 limits assumed): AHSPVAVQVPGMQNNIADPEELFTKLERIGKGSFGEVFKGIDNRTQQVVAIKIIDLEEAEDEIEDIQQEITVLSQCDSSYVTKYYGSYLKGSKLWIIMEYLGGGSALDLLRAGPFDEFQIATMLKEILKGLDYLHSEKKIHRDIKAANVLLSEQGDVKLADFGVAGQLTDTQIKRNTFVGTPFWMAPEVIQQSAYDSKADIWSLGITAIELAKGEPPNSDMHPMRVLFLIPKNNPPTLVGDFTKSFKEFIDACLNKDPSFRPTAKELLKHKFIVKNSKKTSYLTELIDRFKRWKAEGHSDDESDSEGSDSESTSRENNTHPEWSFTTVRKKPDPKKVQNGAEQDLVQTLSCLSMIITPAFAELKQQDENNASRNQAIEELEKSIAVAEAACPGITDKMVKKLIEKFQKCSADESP
Sequence of Serine/threonine-protein kinase PAK 3 (Homo sapiens) (O75914 whole entry, looked up): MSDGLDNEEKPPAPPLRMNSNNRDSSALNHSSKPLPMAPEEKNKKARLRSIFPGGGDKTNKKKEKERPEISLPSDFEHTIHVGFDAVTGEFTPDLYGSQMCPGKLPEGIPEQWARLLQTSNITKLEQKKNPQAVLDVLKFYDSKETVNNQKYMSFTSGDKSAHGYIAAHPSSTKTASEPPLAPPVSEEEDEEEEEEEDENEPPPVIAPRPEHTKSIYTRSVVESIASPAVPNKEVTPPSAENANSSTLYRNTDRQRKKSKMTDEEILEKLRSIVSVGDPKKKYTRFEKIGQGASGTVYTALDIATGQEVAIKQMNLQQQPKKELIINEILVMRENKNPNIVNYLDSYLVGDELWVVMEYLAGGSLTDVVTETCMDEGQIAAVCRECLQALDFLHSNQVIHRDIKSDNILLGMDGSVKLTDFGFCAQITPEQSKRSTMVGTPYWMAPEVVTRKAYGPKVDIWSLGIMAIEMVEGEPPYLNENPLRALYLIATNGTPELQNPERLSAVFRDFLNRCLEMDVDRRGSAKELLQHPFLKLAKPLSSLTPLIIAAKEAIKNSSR
Sequence of Serine/threonine-protein kinase TBK1 (Homo sapiens) (Q9UHD2 whole entry): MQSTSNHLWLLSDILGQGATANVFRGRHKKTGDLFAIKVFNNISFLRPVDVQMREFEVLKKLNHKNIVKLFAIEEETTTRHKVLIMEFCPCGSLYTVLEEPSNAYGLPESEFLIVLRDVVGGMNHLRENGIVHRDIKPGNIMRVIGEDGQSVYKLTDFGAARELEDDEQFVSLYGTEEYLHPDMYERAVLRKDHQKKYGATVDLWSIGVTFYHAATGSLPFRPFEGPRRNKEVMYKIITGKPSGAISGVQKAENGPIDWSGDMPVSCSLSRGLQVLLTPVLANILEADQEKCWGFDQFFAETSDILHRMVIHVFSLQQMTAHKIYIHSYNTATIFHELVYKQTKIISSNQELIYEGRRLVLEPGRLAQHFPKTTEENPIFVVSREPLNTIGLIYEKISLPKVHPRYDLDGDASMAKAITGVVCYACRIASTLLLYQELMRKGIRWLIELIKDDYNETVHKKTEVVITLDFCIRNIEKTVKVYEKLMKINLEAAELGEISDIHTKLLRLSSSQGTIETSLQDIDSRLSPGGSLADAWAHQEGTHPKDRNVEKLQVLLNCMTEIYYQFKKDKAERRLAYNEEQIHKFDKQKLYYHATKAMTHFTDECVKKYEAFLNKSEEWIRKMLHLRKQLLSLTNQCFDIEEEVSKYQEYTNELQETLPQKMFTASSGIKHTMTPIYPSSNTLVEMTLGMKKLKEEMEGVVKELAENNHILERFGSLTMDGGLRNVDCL

SMILES | residual activity [1] [%] | residual activity [2] [%] | residual activity [3] [%] | residual activity [4] [%] | residual activity [5] [%] | residual activity [6] [%] | residual activity [7] [%] | residual activity [8] [%] | residual activity [9] [%] | residual activity [10] [%] | residual activity [11] [%] | residual activity [12] [%] | residual activity [13] [%] | residual activity [14] [%] | residual activity [15] [%] | residual activity [16] [%] | residual activity [17] [%] | residual activity [18] [%] | residual activity [19] [%] | residual activity [20] [%] | also measured
C[C@@H](c1cccc(C#N)c1)n1cc(Cl)cc(C(N)=O)c1=N [(S)-9s] | 100 | 85 | 100 | 85 | 88 | 91 | 100 | 96 | 100 | 86 | 92 | 90 | 100 | 56 | 99 | 87 | 100 | 100 | 100 | 99 | residual activity [21]: 100%; residual activity [22]: 68%; residual activity [23]: 97%; residual activity [24]: 94%; residual activity [25]: 100%; residual activity [26]: 100%; residual activity [27]: 83%; residual activity [28]: 100%; residual activity [29]: 87%; residual activity [30]: 100%; residual activity [31]: 100%; residual activity [32]: 89%; residual activity [33]: 74%; residual activity [34]: 0%; residual activity [35]: 71%; residual activity [36]: 100%; residual activity [37]: 100%; inhibition [38]: 4.17%; inhibition [39]: -1.01%
C[C@H](c1cccc(C#N)c1)n1cc(Cl)cc(C(N)=O)c1=N [(R)-9s] | 92 | 78 | 100 | 95 | 89 | 84 | 100 | 100 | 100 | 89 | 100 | 82 | 100 | 82 | 99 | 82 | 100 | 100 | 100 | 100 | residual activity [21]: 100%; residual activity [22]: 88%; residual activity [23]: 79%; residual activity [24]: 88%; residual activity [25]: 100%; residual activity [26]: 95%; residual activity [27]: 65%; residual activity [28]: 93%; residual activity [29]: 83%; residual activity [30]: 100%; residual activity [31]: 77%; residual activity [32]: 98%; residual activity [33]: 86%; residual activity [34]: 96%; residual activity [35]: 83%; residual activity [36]: 96%; residual activity [37]: 100%; inhibition [38]: -7.43%; inhibition [39]: 4.64%
